Measurements reported in patent US9783573B2, “IAP antagonists” (BRISTOL-MYERS SQUIBB COMPANY, priority 2012, dated 2017).
Like-named read-outs stand apart in the source and are kept apart here.

Biological target: N-His-Tb-BIR3 (241-356, XIAP) (Homo sapiens (Human), UniProt P98170)
Experiment: biochemical
Assay type: binding
[1] = fluoresceinated modified SMAC peptide, fluorescence polarization, read-out: XIAP BIR3 FPA IC50

Compound	IC50 [1] [nM]	further results
CN[C@@H](C)C(=O)N[C@H](C(=O)N1Cc2cc(NC(=O)C(F)(F)C(F)(F)C(=O)N[C@H]3C[C@@H](C(=O)N[C@@H]4CCCc5ccccc54)N(C(=O)[C@@H](NC(=O)[C@H](C)NC)C(C)(C)C)C3)ccc2C[C@H]1C(=O)N[C@@H]1CCCc2ccccc21)C(C)(C)C [Example 17, N^1—((S)-2-((S)-3,3-Dimethyl-2-((S)-2-(methylamino)propanamido)butanoyl)-3-(((R)-1,2,3,4-tetrahydronaphthalen-1-yl)carbamoyl)-1,2,3,4-tetrahydroisoquinolin-7-yl)-N^4-((3S,5S)-1-((S)-3,3-dimethyl-2-((S)-2-(methylamino)propanamido)butanoyl)-5-(((R)-1,2,3,4-tetrahydronaphthalen-1-yl)carbamoyl)pyrrolidin-3-yl)-2,2,3,3-tetrafluorosuccinamide]	–	IC50 (read-out: XIAP BIR3 FPA IC50): 56 nM
CN[C@@H](C)C(=O)N[C@H](C(=O)N1Cc2cc(C(=O)Nc3ccc(C(=O)N[C@H]4C[C@@H](C(=O)N[C@@H]5CCCc6ccccc65)N(C(=O)[C@@H](NC(=O)[C@H](C)NC)C(C)(C)C)C4)cc3)ccc2C[C@H]1C(=O)N[C@@H]1CCCc2ccccc21)C(C)(C)C [Example 27, (S)-2-((S)-3,3-Dimethyl-2-((S)-2-(methylamino)propanamido)butanoyl)-N^7-(4-(((3S,5S)-1-((S)-3,3-dimethyl-2-((S)-2-(methylamino)propanamido)butanoyl)-5-(((R)-1,2,3,4-tetrahydronaphthalen-1-yl)carbamoyl)pyrrolidin-3-yl)carbamoyl)phenyl)-N^3—((R)-1,2,3,4-tetrahydronaphthalen-1-yl)-1,2,3,4-tetrahydroisoquinoline-3,7-dicarboxamide]	73	–
CN[C@@H](C)C(=O)N[C@H](C(=O)N1Cc2cc(C(=O)NC3(C(=O)N[C@H]4C[C@@H](C(=O)N[C@@H]5CCCc6ccccc65)N(C(=O)[C@@H](NC(=O)[C@H](C)NC)C(C)(C)C)C4)CC3)ccc2C[C@H]1C(=O)N[C@@H]1CCCc2ccccc21)C(C)(C)C [Example 28, (S)-2-((S)-3,3-Dimethyl-2-((S)-2-(methylamino)propanamido)butanoyl)-N7-(1-(((3S,5S)-1-((S)-3,3-dimethyl-2-((S)-2-(methylamino)propanamido)butanoyl)-5-(((R)-1,2,3,4-tetrahydronaphthalen-1-yl)carbamoyl)pyrrolidin-3-yl)carbamoyl)cyclopropyl)-N3((R)-1,2,3,4-tetrahydronaphthalen-1-yl)-1,2,3,4-tetrahydroisoquinoline-3,7-dicarboxamide]	98	–
CN[C@@H](C)C(=O)N[C@H](C(=O)N1Cc2cc(C(=O)NC(C)(C)C(=O)N[C@H]3C[C@@H](C(=O)N[C@@H]4CCCc5ccccc54)N(C(=O)[C@@H](NC(=O)[C@H](C)NC)C(C)(C)C)C3)ccc2C[C@H]1C(=O)N[C@@H]1CCCc2ccccc21)C(C)(C)C [Example 29, (S)-2-((S)-3,3-Dimethyl-2-((S)-2-(methylamino)propanamido)butanoyl)-N7-(1-(((3S,5S)-1-((S)-3,3-dimethyl-2-((S)-2-(methylamino)propanamido)butanoyl)-5-(((R)-1,2,3,4-tetrahydronaphthalen-1-yl)carbamoyl)pyrrolidin-3-yl)amino)-2-methyl-1-oxopropan-2-yl)-N3-((R)-1,2,3,4-tetrahydronaphthalen-1-yl)-1,2,3,4-tetrahydroisoquinoline-3,7-dicarboxamide]	61	–
CN[C@@H](C)C(=O)N[C@H](C(=O)N1CC[C@@H](OCc2ccc(C(=O)N[C@H]3C[C@@H](C(=O)N[C@@H]4CCCc5ccccc54)N(C(=O)[C@@H](NC(=O)[C@H](C)NC)C(C)(C)C)C3)cc2)C[C@H]1C(=O)N[C@@H]1CCCc2ccccc21)C(C)(C)C [Example 30, (2S,4R)-1-((S)-3,3-Dimethyl-2-((S)-2-(methylamino)propanamido)butanoyl)-4-((4-(((3S,5S)-1-((S)-3,3-dimethyl-2-((S)-2-(methylamino)propanamido)butanoyl)-5-(((R)-1,2,3,4-tetrahydronaphthalen-1-yl)carbamoyl)pyrrolidin-3-yl)carbamoyl)benzyl)oxy)-N—((R)-1,2,3,4-tetrahydronaphthalen-1-yl)piperidine-2-carboxamide]	38	–
CN[C@@H](C)C(=O)N[C@H](C(=O)N1Cc2cc(NCc3ccc(C(=O)N[C@H]4C[C@@H](C(=O)N[C@@H]5CCCc6ccccc65)N(C(=O)[C@@H](NC(=O)[C@H](C)NC)C(C)(C)C)C4)cc3)ccc2C[C@H]1C(=O)N[C@@H]1CCCc2ccccc21)C(C)(C)C [Example 31, (S)-2-((S)-3,3-Dimethyl-2-((S)-2-(methylamino)propanamido)butanoyl)-7-((4-(((3S,5S)-1-((S)-3,3-dimethyl-2-((S)-2-(methylamino)propanamido)butanoyl)-5-(((R)-1,2,3,4-tetrahydronaphthalen-1-yl)carbamoyl)pyrrolidin-3-yl)carbamoyl)benzyl)amino)-N—((R)-1,2,3,4-tetrahydronaphthalen-1-yl)-1,2,3,4-tetrahydroisoquinoline-3-carboxamide]	71	–
CN[C@@H](C)C(=O)N[C@H](C(=O)N1Cc2cc(N(Cc3ccc(C(=O)N[C@H]4C[C@@H](C(=O)N[C@@H]5CCCc6ccccc65)N(C(=O)[C@@H](NC(=O)[C@H](C)NC)C(C)(C)C)C4)cc3)C(C)=O)ccc2C[C@H]1C(=O)N[C@@H]1CCCc2ccccc21)C(C)(C)C [Example 32, (S)-2-((S)-3,3-Dimethyl-2-((S)-2-(methylamino)propanamido)butanoyl)-7-(N-(4-(((3S,5S)-1-((S)-3,3-dimethyl-2-((S)-2-(methylamino)propanamido)butanoyl)-5-(((R)-1,2,3,4-tetrahydronaphthalen-1-yl)carbamoyl)pyrrolidin-3-yl)carbamoyl)benzyl)acetamido)-N—((R)-1,2,3,4-tetrahydronaphthalen-1-yl)-1,2,3,4-tetrahydroisoquinoline-3-carboxamide]	35	–
CN[C@@H](C)C(=O)N[C@H](C(=O)N1Cc2cc(NCc3ccc(C(=O)N[C@H]4C[C@@H](C(=O)N[C@@H]5CCCc6ccccc65)N(C(=O)[C@@H](NC(=O)[C@H](C)NC)C(C)(C)C)C4)cc3Cl)ccc2C[C@H]1C(=O)N[C@@H]1CCCc2ccccc21)C(C)(C)C [Example 33, (S)-7-((2-Chloro-4-(((3S,5S)-1-((S)-3,3-dimethyl-2-((S)-2-(methylamino)propanamido)butanoyl)-5-(((R)-1,2,3,4-tetrahydronaphthalen-1-yl)carbamoyl)pyrrolidin-3-yl)carbamoyl)benzyl)amino)-2-((S)-3,3-dimethyl-2-((S)-2-(methylamino)propanamido)butanoyl)-N—((R)-1,2,3,4-tetrahydronaphthalen-1-yl)-1,2,3,4-tetrahydroisoquinoline-3-carboxamide]	66	–
CCN[C@@H](C)C(=O)N[C@H](C(=O)N1Cc2cc(NC(=O)c3ccc(C(=O)N[C@H]4C[C@@H](C(=O)N[C@@H]5CCCc6ccccc65)N(C(=O)[C@@H](NC(=O)[C@H](C)NC)C(C)(C)C)C4)cc3)ccc2C[C@H]1C(=O)N[C@@H]1CCCc2ccccc21)C(C)(C)C [Example 34, N^1-((3S,5S)-1-((S)-3,3-dimethyl-2-((S)-2-(methylamino)propanamido)butanoyl)-5-(((R)-1,2,3,4-tetrahydronaphthalen-1-yl)carbamoyl)pyrrolidin-3-yl)-N^4-((S)-2-((S)-2-((S)-2-(ethylamino)propanamido)-3,3-dimethylbutanoyl)-3-(((R)-1,2,3,4-tetrahydronaphthalen-1-yl)carbamoyl)-1,2,3,4-tetrahydroisoquinolin-7-yl)terephthalamide]	150	–
CN[C@@H](C)C(=O)N[C@H](C(=O)N1C[C@@H](NC(=O)c2ccc(C(=O)Nc3ccc4c(c3)CN(C(=O)[C@@H](NC(=O)[C@@H](NC)C(C)C)C(C)(C)C)[C@H](C(=O)N[C@@H]3CCCc5ccccc53)C4)cc2)C[C@H]1C(=O)N[C@@H]1CCCc2ccccc21)C(C)(C)C [Example 35]	200	–
CN[C@@H](C)C(=O)N[C@H](C(=O)N1Cc2cc(NC(=O)c3ccc(C(=O)N[C@H]4C[C@@H](C(=O)N[C@@H]5CCCc6ccccc65)N(C(=O)[C@@H](NC(=O)[C@@H](NC)C(C)C)C(C)(C)C)C4)cc3)ccc2C[C@H]1C(=O)N[C@@H]1CCCc2ccccc21)C(C)(C)C [Example 36, N^1-((S)-2-((S)-3,3-dimethyl-2-((S)-2-(methylamino)propanamido)butanoyl)-3-(((R)-1,2,3,4-tetrahydronaphthalen-1-yl)carbamoyl)-1,2,3,4-tetrahydroisoquinolin-7-yl)-N^4-((3S,5S)-1-((S)-3,3-dimethyl-2-((S)-3-methyl-2-(methylamino)butanamido)butanoyl)-5-(((R)-1,2,3,4-tetrahydronaphthalen-1-yl)carbamoyl)pyrrolidin-3-yl)terephthalamide]	–	IC50: 190 nM
CN[C@@H](C)C(=O)N[C@H](C(=O)[C@@H]1C[C@H](NC(=O)[C@@H](CCC(F)(F)F)[C@@H](CCC(F)(F)F)C(=O)Nc2ccc3c(c2)CN(C(=O)[C@@H](NC(=O)[C@H](C)NC)C(C)(C)C)[C@H](C(=O)N[C@@H]2CCCc4ccccc42)C3)CN1C(=O)N[C@@H]1CCCc2ccccc21)C(C)(C)C [Example 37, (2S,3R)-N^1-((3S,5S)-5-((S)-3,3-dimethyl-2-((S)-2-(methylamino)propanamido)butanoyl)-1-(((R)-1,2,3,4-tetrahydronaphthalen-1-yl)carbamoyl)pyrrolidin-3-yl)-N^4-((S)-2-((S)-3,3-dimethyl-2-((S)-2-(methylamino)propanamido)butanoyl)-3-(((R)-1,2,3,4-tetrahydronaphthalen-1-yl)carbamoyl)-1,2,3,4-tetrahydroisoquinolin-7-yl)-2,3-bis(3,3,3-trifluoropropyl) succinamide]	110	–
